Read-outs that look alike come from different tables or passages of the source.

For data set [1], the system named is Tetrahymena pyriformis cells. Nature of the data set: Glycogenolysis in intact Tetrahymena pyriformis cells. The format is cell-based. Conditions: glucose measured, FIG. 3. On the procedure: The results were obtained using the following procedure: Tetrahymena pyriformis cells, in log phase, are spun down, washed with saline and resuspended in Tyrodes solution. After 30 min of incubation, the compounds III and IV in bovine serum albumin solution are added and aliquots taken at different time intervals. The aliquots are treated for 2 min in boiled water, sonicated and glucose measured by the method of Bergmeyer et al. (Methods of Enzymatic Analysis, 3, 1196 (Academic Press, N.Y. 1974), the teachings of which are incorporated herein.

For a further data set, the system named is rats. As to the kind of experiment: Systolic blood pressure in rats (procedure of Tselepis et al.). Format: in vivo, rat. From the text: Biochem. Physiol. 87C(1),41-46 (1987), the teachings of which are incorporated herein.
In data set [2] the test system is PAF aggregation of washed rabbit platelets. Nature of the data set: Inhibition of PAF (AGEPC) activity / disaggregation during AGEPC-induced aggregation of washed rabbit platelets. Format: cell-based. Particulars: for IC50: Oryctolagus cuniculus, Platelet.
For the next data set, the system named is rabbit platelets. As to the kind of experiment: [3H]Serotonin secretion by platelets. Format: cell-based. Conditions: Oryctolagus cuniculus, Platelet; 2 min; final concentrations; read-out: 50% secretion of 3H-serotonin at 2 min. On the procedure: The procedure is as follows: PAF and the various test lipid compounds are assessed for platelet stimulatory activity as briefly described. Rabbit platelets, internally labeled with [^3 H]serotonin (New England Nuclear; 28.2 Ci/mmol) are washed on Ficoll-Paque cushions and adjusted to 2.5×10^8 platelets/ml of Tyrode's buffer, pH 7.2. Appropriate dilutions of PAF or the test lipids are prepared in pyrogen-free 0.15M NaCl containing 2.5 mg/ml of crystallized bovine serum albumin; the albumin is required for dispersion of PAF and the test lipids. Four microliters of the various dilutions of PAF and test lipids are added to 200 μl of prewarmed (37° C.) [^3 H]serotonin-labeled platelets in plastic test tubes and the reaction mixture was incubated for 60 s at which time 20 μl of cold 1.5 m formaldehyde were added to stop the reactions. The tubes were immediately cooled to 0° C., centrifuged at 2200×g for 10 min and the supernatants were assayed for percentage of [^3 H]serotonin secretion relative to 100% controls prepared by the addition of Triton X-100 to 200 μl of the starting platelet suspension. The data were plotted linearly and 1 unit of activity was defined as the amount of PAF or test lipids required to effect 50% serotonin release. […]

In a further data set the test system is washed rabbit platelets. As to the kind of experiment: Aggregation of washed rabbit platelets (procedure of Demopoulos et al.). The format is cell-based. Particulars: for EC50: Oryctolagus cuniculus, Platelet, final concentrations; for cytotoxicity of the aggregation: washed rabbit platelets.
The mark [3] stands for this setting: Table, final molar concentration, for 2 × 10^-10 M AGEPC, read-out: IC50.
The mark [4] stands for this setting: against 2×10^-10 M PAF, final concentrations, read-out: IC50 for 2×10^-10 M PAF.

Turning to “1-O-alkyl-2-acetyl-sn-glyceryl-3-phosphorylcholine [PAF]”, the glycogenolysis result in data set [1] is “dramatic influence on glycogenolysis”. Besides, the “fall in systolic blood pressure (SBP)” value with rats is “fall in the systolic blood pressure”.
Consider `CCCCCCCCC(O)C(O)CCCCCCCCOCC(O)CO` (stereo not shown) [Compound III, 9,10-Dihydroxy-Octadecyl Glycerol], for which the half-inhibitory concentration (IC50) in data set [2] (setting [3]) and in data set [2] (setting [4]) was 16 µM in each case. Moreover, the figures for the EC50 with rabbit platelets and in the data set on washed rabbit platelets were 2 µM and 0.2 µM, respectively. Moreover, the “cytotoxicity of the aggregation” value in the data set on washed rabbit platelets is listed as “non-cytotoxic”.
With `CCCCCCCCC(OC(C)=O)C(CCCCCCCCOCC(COC(C)=O)OC(C)=O)OC(C)=O` (stereo not shown) [Compound IV, Tetra-Acetyl-9,10-Dihydroxy-Octadecyl Glycerol], the IC50 in data set [2] (setting [3]) and in data set [2] (setting [4]) was 28 µM in each case. In addition, the EC50 in the data set on rabbit platelets was found to be 9 µM; with washed rabbit platelets, 2 µM. In addition, the “cytotoxicity of the aggregation” value in the data set on washed rabbit platelets was “non-cytotoxic”.
Turning to thrombin, the “effect on aggregation when added during AGEPC-induced aggregation” value in data set [2] (added during AGEPC (PAF)-induced aggregation, FIG. 4) is given as “no effect on platelet aggregation”.

As usually defined, the IC50 is the point on the concentration scale where inhibition reaches its midpoint.

The values are drawn from patent US4851450A, “Compounds for inhibition of platelet activating factor activity” (priority 1987, dated 1989).
